Starred links: 1 amine or outer side, 2 acyl side, 3 side chain; linkers in the order of their positions; H or OH if unused. Non-standard residues stand in square brackets, D forms with d. Residues, ends and D or L forms follow the SMILES beside them. ξ: configuration not given here. X5 = CC(CC(C(=O)[*:2])N(C)[*:1])C(C)OC=O; X2 = CC(COC=O)CC(C(=O)[*:2])N(C)[*:1]; X4 = CC(O)C(C)CC(C(=O)[*:2])N(C)[*:1]; ξNle(4-Me,5-ene) = C=CC(C)CC(N)C(=O)O; X1 = CCC(C)CC(C(=O)[*:2])N(C)[*:1]; X3 = CC(CO)CC(C(=O)[*:2])N(C)[*:1]; ξLeu(3ξ-OH) = CC(C)C(O)C(N)C(=O)O; NMeA = CN[CH](C)C(=O)O

The results in this text go back to patent EP4461367A1, “NEW TERNATIN-TYPE CYCLOPEPTIDES FOR USE IN THERAPY” (Centre National de la Recherche Scientifique, priority 2023, dated 2024).

The subject of data set [1] is ZIKV^GFP. Nature of the data set: ZIKV^GFP antiviral assay, GFP by FACS at 24 h post-infection. Type of data set: cell-based. Conditions: Zika virus. The text has this: The antiviral activity of the compounds (C1 and C3 to C7) of formula (I) has been evaluated against Zika virus as representative of flaviviruses. Vero, A549 or Huh7.5 cells were infected with ZIKV^GFP (MOI=2) and simultaneously treated with increasing concentrations of the compounds of formula (I) (C1 and C3 to C7) or ternatin (ten-fold serial dilutions of considered compound).

Data set [2] has as its system ZIKV^GFP. Nature of the data set: ZIKV^GFP antiviral assay, GFP by FACS at 48 h post-infection. The format is cell-based. The settings on record: Zika virus, Vero, read-out: IC50 against ZIKV. The text has this: Vero cells were infected with ZIKV^GFP (MOI=2) and simultaneously treated with increasing concentrations of the compound C1 or ternatin (ten-fold serial dilutions of considered compound).

A further data set deals with DENV. Nature of the data set: DENV antiviral assay, infected cells by FACS at 72 h post-infection. The format is cell-based. The settings on record: Dengue virus; Vero cells, DENV MOI = 0.1, 72 h post-infection, Figure 9C; read-out: IC50 against DENV. As for the experimental part:
At 72 h post-infection, the percentage of DENV-infected cells was measured by FACS assay.

The test system of the next data set is HCoV-229E-Luc. Kind of data set: microbe, parasite or virus in culture. The settings on record: Alphacoronavirus, Huh-7, 24 h, read-out: IC50 (nM) Huh7. The format is cell-based, human alphacoronavirus HCoV-229-E.
The test system of data set [3] is SARS-CoV-2. Kind of data set: SARS-CoV-2 viral progeny, PFU assay (plaque-forming assay) of Huh7 supernatant. The format is cell-based. The settings on record: Huh7 cells, MOI=0.01, 24 h post-infection, at 0.6 nM, Figure 10B. As for the experimental part:
The compound C1 has been tested on the betacoronavirus SARS-CoV-2. Huh7 cells were infected with SARS-CoV-2 (MOI=0.01) and simultaneously treated with increasing concentrations of the compound of formula (I). At 24 h post-infection, cell supernatant was recovered for viral titration (Figure 10B). Viral progeny was measured by a PFU assay (plaque-forming assay) by quantifying infectious particles in the supernatant (PFU/mL).

Data set [4] deals with SARS-CoV-2. Nature of the data set: Preclinical model in human primary bronchial epithelial cells (Mucilair), viral RNA by qRTPCR. Type of data set: cell-based. Conditions: Severe acute respiratory syndrome coronavirus 2, Primary bronchial epithelial cell, viral RNA at 72 h post-inoculation, Figure 12, read-out: inhibition of the infection by SARS-CoV-2. As for the experimental part: The compound C1 was evaluated on a preclinical model in human primary bronchial epithelial cells (Mucilair) against SARS-CoV-2 (T. Meunier et al., Antimicrob Agents Chemother. 2022 Feb; 66(2): e01581-21). Mucilair cells were inoculated with SARS-CoV-2 in the presence of compound C1 at 0.75, 7.5 or 75 pM for 1 h at the apical side. Inoculum was removed 1 h post-infection. At 72 h post-inoculation, cells were lysed to extract RNA. Viral RNA was quantified by qRTPCR. For RNA quantification, data are expressed relative to the Mock-treated control.

A short description of data set [5]: Cellular cytotoxicity, MTT assay, Vero E6. The format is cell-based. Conditions: african green monkey, Vero E6 cells, 48 h of treatment. As to the method: (§1) Cytotoxicity of the compounds of formula (I) was evaluated on A549, Vero E6 and Huh7 cells by measuring the mitochondrial activity after 48 h of treatment by an MTT assay.
Data set [6] in a line: Cellular cytotoxicity, MTT assay, A549. Conditions: human, A549 cells, 48 h of treatment. The format is cell-based. As for the experimental part:
as §1

A short description of data set [7]: Cellular cytotoxicity, MTT assay, Huh7. Type of data set: cell-based. Conditions: human, Huh7 cells, 48 h of treatment. As to the method: as §1
Another data set concerns RRV^GFP. Kind of data set: microbe, parasite or virus in culture. Conditions: Ross River virus, Vero, 18 h, read-out: IC50 against RRV.
Data set [8] has as its system ZIKV^GFP. Kind of data set: Time of drug-addition assay, ZIKV^GFP in A549 cells. Conditions: 10 nM, Figure 11C.
Protocol: Time of drug-addition assay aims at characterizing the antiviral action of the compounds of the invention on various stages of the dissecting virus infectious cycle.
Compound C1 (10 nM) or vehicle were used for treatment of A549 cells for viral inactivation assay, concurrently to virus input (Entry), after virus exposure (Replication) with specific washing steps and incubation periods (Figure 11A).
The data represent the means ± SD of four independent experiments performed in triplicate, and are expressed as relative values compared to vehicle-treated cells.
The mark [9] stands for this setting: A549, 24 h, read-out: IC50 (nM) A549.
Where [10] appears, read: Huh7.5, 24 h, read-out: IC50 (nM) Huh7.5.
Where [11] appears, read: Vero, 24 h, read-out: IC50 (nM) Vero.

Protocol for RRV^GFP: At 18 h post-infection, the percentage of GFP expressed by the cells is measured by FACS (Flow cytometric analysis of GFP fluorescence). Data represent the means ± SD of four independent experiments performed in triplicate and are expressed as relative values compared to mock-treated control.
Protocol for adult zebrafish: (D) Total distance travelled at 1 day post injection. […] After injection, fish were observed during 5 days. Statistical analyses were conducted using unpaired t-test comparisons, n = 5 (n: number of fishes per group).

Take `C=CC(C)CC1NC(=O)C(CC(C)C)N(C)C(=O)C(C)N(C)C(=O)C(C(C)CC)NC(=O)C(C(O)C(C)C)NC(=O)C(C)N(C)C(=O)C(C)N(C)C1=O` (stereo not shown) [Compound C1, comptonellin A]: the IC50 with ZIKV^GFP [1] (setting [9]) turned out to be 4 nM; with ZIKV^GFP [1] (setting [10]), 2 nM; in the data set with ZIKV^GFP [1] (setting [11]), 9 nM; in the data set on ZIKV^GFP [2] it was 60 nM; with DENV, 42 nM; in the data set with HCoV-229E-Luc, 5 nM. Besides, in the data set on RRV^GFP, the concentration for half-maximal inhibition (IC50) was 57 nM. Besides, in the data set on SARS-CoV-2 [3], the “reduces SARS-CoV-2 viral progeny production” value was found to be 3 logs. Moreover, the inhibition at 75 pM in the data set with SARS-CoV-2 [4] was more than 98%. Further, the CC50 at 48 h in data set [5] worked out at 200 nM; in data set [6] it was 11.2 nM; in data set [7] it was 4.9 nM. Besides, the “toxicity in adult zebrafish” value with adult zebrafish (at the effective antiviral dose, injected 10 ng/µL, observed during 5 days) was “no toxicity”. In the data set with adult zebrafish (injected with 10 ng/µL, 1 day post injection, Figure 13), the “fine-tune locomotor activity of zebrafish” value is recorded as “did not impair fine-tune locomotor activity”. In addition, the “stage of viral infection targeted” value in the data set with ZIKV^GFP [8] is recorded as “targets late stages of viral infection”.
Turning to `C=CC(C)CC1NC(=O)C(CC(C)CC)N(C)C(=O)C(C)N(C)C(=O)C(C(C)CC)NC(=O)C(C(O)C(C)C)NC(=O)C(C)N(C)C(=O)C(C)N(C)C1=O` (stereo not shown) [Compound C3, comptonellin C] (cyclo([X1][ξNle(4-Me,5-ene)][NMeA][NMeA][ξLeu(3ξ-OH)]I[NMeA]); configuration not given here), the IC50 with ZIKV^GFP [1] (setting [9]) amounted to 0.5 nM; in the data set on ZIKV^GFP [1] (setting [10]), 0.003 nM; in the data set on ZIKV^GFP [1] (setting [11]), 9 nM; in the data set with HCoV-229E-Luc it was 2.4 nM. Also, the CC50 at 48 h in data set [5] stood at 412 nM.
With `C=CC(C)CC1NC(=O)C(CC(C)CO)N(C)C(=O)C(C)N(C)C(=O)C(C(C)CC)NC(=O)C(C(O)C(C)C)NC(=O)C(C)N(C)C(=O)C(C)N(C)C1=O` (stereo not shown) [Compound C4, comptonellin D] (cyclo([X3][ξNle(4-Me,5-ene)][NMeA][NMeA][ξLeu(3ξ-OH)]I[NMeA]); configuration not given here), the IC50 with ZIKV^GFP [1] (setting [9]) is 26 nM; with ZIKV^GFP [1] (setting [10]), 12 nM; in the data set on ZIKV^GFP [1] (setting [11]), 163 nM; in the data set with HCoV-229E-Luc it was 96.8 nM. Moreover, the values for the CC50 at 48 h in data set [5], in [6] and in [7] were 3760 nM, 52.8 nM and 9.35 nM, respectively.
For the compound `C=CC(C)CC1NC(=O)C(CC(C)C(C)O)N(C)C(=O)C(C)N(C)C(=O)C(C(C)CC)NC(=O)C(C(O)C(C)C)NC(=O)C(C)N(C)C(=O)C(C)N(C)C1=O` (stereo not shown) [Compound C5, comptonellin E] (cyclo([X4][ξNle(4-Me,5-ene)][NMeA][NMeA][ξLeu(3ξ-OH)]I[NMeA]); configuration not given here), the IC50 in the data set on ZIKV^GFP [1] (setting [9]) was 40 nM; in the data set on ZIKV^GFP [1] (setting [10]) it was 11 nM; with ZIKV^GFP [1] (setting [11]), 244 nM; in the data set with HCoV-229E-Luc, 98.5 nM. The CC50 at 48 h in data set [5] worked out at 4810 nM; in data set [6] it was 99.8 nM; in data set [7] it was 31.9 nM.
For the compound `C=CC(C)CC1NC(=O)C(CC(C)COC=O)N(C)C(=O)C(C)N(C)C(=O)C(C(C)CC)NC(=O)C(C(O)C(C)C)NC(=O)C(C)N(C)C(=O)C(C)N(C)C1=O` (stereo not shown) [Compound C6, comptonellin F] (cyclo([X2][ξNle(4-Me,5-ene)][NMeA][NMeA][ξLeu(3ξ-OH)]I[NMeA]); configuration not given here), the IC50 turned out to be 13 nM with ZIKV^GFP [1] (setting [9]), 9 nM in the data set on ZIKV^GFP [1] (setting [10]), 115 nM in the data set with ZIKV^GFP [1] (setting [11]) and 36.8 nM in the data set on HCoV-229E-Luc. Moreover, the values for the CC50 at 48 h in data set [5], in data set [6] and in data set [7] were 3530 nM, 41 nM and 22.1 nM, respectively.
Turning to `C=CC(C)CC1NC(=O)C(CC(C)C(C)OC=O)N(C)C(=O)C(C)N(C)C(=O)C(C(C)CC)NC(=O)C(C(O)C(C)C)NC(=O)C(C)N(C)C(=O)C(C)N(C)C1=O` (stereo not shown) [Compound C7, comptonellin G] (cyclo([X5][ξNle(4-Me,5-ene)][NMeA][NMeA][ξLeu(3ξ-OH)]I[NMeA]); configuration not given here), the IC50 with ZIKV^GFP [1] (setting [9]) worked out at 46 nM; with ZIKV^GFP [1] (setting [10]) it was 16 nM; with ZIKV^GFP [1] (setting [11]), 176 nM; with HCoV-229E-Luc, 15 nM. For the same compound, the CC50 at 48 h in data set [5] worked out at 379 nM; in [6], 80.6 nM; in data set [7], 93.9 nM.
Consider `COc1cc(-c2oc3c(OC)c(OC)cc(O)c3c(=O)c2OC)ccc1O` [Ternatin, ternatin], for which the IC50 was found to be 92 nM in the data set with ZIKV^GFP [1] (setting [9]); 23 nM with ZIKV^GFP [1] (setting [10]); 584 nM with ZIKV^GFP [1] (setting [11]); 860 nM in the data set on ZIKV^GFP [2]; 493 nM in the data set on DENV; 157 nM in the data set on HCoV-229E-Luc. Also, the IC50 in the data set with RRV^GFP stood at 977 nM.
